Assay results as given in patent publication US7235563B2, “Spirocyclic compounds useful as modulators of nuclear hormone receptor function” (Bristol-Myers Squibb Company, priority 2004, dated 2007).
Where two headings read alike, the source gives them in different places.

Experiments:
glucocorticoid receptor = glucocorticoid receptor (Homo sapiens, UniProt P04150); settings: concentration of ≦10 μM; 10 ng/ml PMA; A549 cells
Protocol: Cells are plated the day before the assay at approximately 40000 cells/well. […] Activity is measured by analysis in a luminometer as compared to control experiments treated with buffer or dexamethasome.

AR [1] = biological target: T1, AR (Rattus norvegicus, UniProt P15207)
T1 sequence (P15207 1-902): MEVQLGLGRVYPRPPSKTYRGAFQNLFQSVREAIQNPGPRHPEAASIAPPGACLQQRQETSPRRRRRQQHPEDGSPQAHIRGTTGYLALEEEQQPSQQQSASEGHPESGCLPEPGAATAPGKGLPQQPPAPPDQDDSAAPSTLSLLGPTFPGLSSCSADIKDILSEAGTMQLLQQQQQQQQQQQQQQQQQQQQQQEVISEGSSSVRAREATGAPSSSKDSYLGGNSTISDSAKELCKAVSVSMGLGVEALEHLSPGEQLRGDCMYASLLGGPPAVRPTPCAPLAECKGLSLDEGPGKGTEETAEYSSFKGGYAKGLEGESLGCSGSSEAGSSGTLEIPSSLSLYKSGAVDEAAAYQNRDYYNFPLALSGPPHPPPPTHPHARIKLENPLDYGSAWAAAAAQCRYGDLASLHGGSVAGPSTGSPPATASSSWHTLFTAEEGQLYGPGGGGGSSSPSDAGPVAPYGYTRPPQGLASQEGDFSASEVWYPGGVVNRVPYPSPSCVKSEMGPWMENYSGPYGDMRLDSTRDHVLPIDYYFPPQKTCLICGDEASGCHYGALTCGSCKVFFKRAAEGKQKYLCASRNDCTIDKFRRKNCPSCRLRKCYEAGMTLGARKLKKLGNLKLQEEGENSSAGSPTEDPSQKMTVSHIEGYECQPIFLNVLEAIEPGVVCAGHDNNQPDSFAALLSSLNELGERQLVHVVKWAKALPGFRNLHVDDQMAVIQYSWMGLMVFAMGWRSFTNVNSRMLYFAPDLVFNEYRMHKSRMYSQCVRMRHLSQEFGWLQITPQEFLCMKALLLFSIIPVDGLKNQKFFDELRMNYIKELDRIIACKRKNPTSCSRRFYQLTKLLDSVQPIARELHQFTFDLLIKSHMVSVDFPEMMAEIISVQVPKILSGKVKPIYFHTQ
Text: The basis of this assay lies in the well-defined action of androgenic agents on the maintenance and growth of muscle tissues and sexual accessory organs in animals and man. […] J. Anat. […] I. Quantitative data” Boll.-Soc. Ital. Biol. Sper. […] II. Electron-microscopic observations” Boll.-Soc. Ital. Biol. Sper. […] Castration results in rapid involution and atrophy of the prostate and seminal vesicles. This effect can be reversed by exogenous addition of androgens. Since both the levator ani muscle and the male sex organs are the tissues most responsive to the effects of androgenic agents, this model is used to determine the androgen dependent reversal of atrophy in the levator ani muscle and the sex accessory organs in immature castrated rats. […] Control vehicle • 2.
The gain and loss of sexual organ weight reflect the changes of the cell number (DNA content) and cell mass (protein content), depending upon the serum androgen concentration. […] Therefore, measurement of organ wet weight is sufficient to indicate the bioactivity of androgens and androgen antagonist.

AR [2] = biological target: T1, AR; remark: listed apart in the source
[3] = system: wild type AR (MDA 453 cells); settings: read-out: Kd for [3H]-DHT, Scatchard analysis
Protocol: For the saturation analysis, the difference between the total binding and the non-specific binding, is defined as specific binding.
[formula] After correcting for non-specific binding, IC50 values are determined. […]

Sequence of glucocorticoid receptor (P04150 whole entry): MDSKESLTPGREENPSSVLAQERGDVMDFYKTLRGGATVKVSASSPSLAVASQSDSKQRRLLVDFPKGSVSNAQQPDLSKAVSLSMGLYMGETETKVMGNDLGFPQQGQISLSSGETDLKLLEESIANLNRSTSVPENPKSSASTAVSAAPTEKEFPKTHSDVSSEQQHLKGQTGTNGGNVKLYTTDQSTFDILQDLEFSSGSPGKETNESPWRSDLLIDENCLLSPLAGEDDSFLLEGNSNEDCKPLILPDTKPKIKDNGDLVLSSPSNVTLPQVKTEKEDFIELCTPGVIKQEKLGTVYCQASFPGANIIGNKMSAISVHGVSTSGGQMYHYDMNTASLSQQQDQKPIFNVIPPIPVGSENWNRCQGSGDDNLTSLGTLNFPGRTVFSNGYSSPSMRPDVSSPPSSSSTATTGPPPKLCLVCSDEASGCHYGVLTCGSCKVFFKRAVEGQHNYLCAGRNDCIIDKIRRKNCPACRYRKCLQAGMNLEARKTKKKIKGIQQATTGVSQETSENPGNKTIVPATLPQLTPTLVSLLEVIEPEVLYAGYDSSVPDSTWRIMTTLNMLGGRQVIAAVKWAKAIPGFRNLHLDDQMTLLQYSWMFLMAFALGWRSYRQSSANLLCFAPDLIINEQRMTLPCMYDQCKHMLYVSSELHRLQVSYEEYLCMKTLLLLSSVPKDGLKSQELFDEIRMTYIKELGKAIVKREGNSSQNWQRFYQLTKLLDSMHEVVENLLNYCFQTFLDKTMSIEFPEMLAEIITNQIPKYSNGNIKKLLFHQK

Compound: C[C@@H]1C[C@H]2[C@@H]3CCC4=CC(=O)C=C[C@]4(C)[C@@]3(F)[C@@H](O)C[C@]2(C)[C@@]1(O)C(=O)CO [dexamethasone]
- suppression of activity (% inhibition of the reporter system vs buffer control with PMA) (glucocorticoid receptor): 65%

Compound: CCC(=O)O[C@H]1CC[C@H]2[C@@H]3CCC4=CC(=O)CC[C@]4(C)[C@H]3CC[C@]12C [TP, testosterone propionate]
- potency relative to free T (AR [1]; TP versus free T): 10-30 fold
- EC50 (increase in organ weight) (AR [1]; castrated rats, dosing for 3 days): ~0.03 mg
- potency relative to free T (AR [2]; TP versus free T): 10-30 fold
- ED80 (AR [2]; immature castrated rat model): 0.1 mg
- EC50 (increase in organ weight) (AR [2]; immature castrated rats, dosing for 3 days): ~0.03 mg

Compound: tritiated dihydrotestosterone [[^3H]-DHT]
- Kd [3]: 0.7 nM
